Test results taken from patent publication US4894376A, “Methods of treating diseases characterized by hyperexcitability of neurons” (Trustees of the University of Pennsylvania, priority 1988, dated 1990).

How the values were obtained:
[1] = system: L and T type calcium channels; conditions: cited from earlier work
T type calcium channel [2] = experiment: Patch clamp (voltage clamp) of T type calcium channel current in neuroblastoma cells; format: cell-based, mouse; conditions: for T type calcium channel current: 1 uM, neuroblastoma cells, FIG. 3
L type calcium channel = experiment: Patch clamp (voltage clamp) of L type calcium channel current in neuroblastoma cells; format: cell-based, mouse
neuroblastoma cell = experiment: Current clamp measurement of membrane potential of a neuroblastoma cell; format: cell-based, mouse
right atrium = conditions: spontaneously beating right atrium; cited from earlier work
SA node = conditions: cited from earlier work
T type calcium channel [3] = experiment: Patch clamp (voltage clamp) of T type calcium channel current in chick dorsal root ganglion neurons; format: cell-based, chick (gallus domesticus); conditions: DRG neurons; FIG. 2B
frog atrial cells = conditions: cited from earlier work

COc1ccc(CCN(C)CCCC(C#N)(c2ccc(OC)c(OC)c2)C(C)C)cc1OC (stereo not shown) [Verapamil, verapamil]
calcium channel type blocked [1]: block both the L and T type calcium channels

COC(=O)C1=C(C)NC(C)=C(C(=O)OC)C1c1ccccc1[N+](=O)[O-] [Nifidepine, nifidepine]
calcium channel type blocked [1]: blocks only the L type calcium channel

COc1ccc(CNC(=N)NC(=O)c2nc(Cl)c(N)nc2N)cc1OC [Dimethoxybenzamil, 3,4-dimethoxybenzamil]
T type calcium channel current (T type calcium channel [2]): similarly suppresses the T type current

N=C(NCc1ccccc1)NC(=O)c1nc(Cl)c(N)nc1N [benzamil]
T type calcium channel current (T type calcium channel [2]): reversably suppresses the bulk of the T type calcium channel current
increase of T channel activity by addition of a benzyl moiety to the guanidine portion of amiloride (T type calcium channel [2]; relative to amiloride): about fifty
L type current (L type calcium channel; 1 uM, neuroblastoma cells, FIG. 3): without suppressing the L type current
regenerative depolarization (neuroblastoma cell; 5 uM, after 1 uM TTX, current pulses of 40 picoamps, FIG. 4): further decreased the regenerative depolarization

N=C(N)NC(=O)c1nc(Cl)c(N)nc1N [amiloride]
frequency of contractions (right atrium): decreased the frequency of contractions of the spontaneously beating right atrium
T type calcium channel current (transient current) (T type calcium channel [2]; N1E-115 cells, held at -90 mV, depolarization to -20 mV, FIG. 1A, 1C): suppresses this T type channel current
chronotropic action (SA node): negative chronotropic action on the SA node
T type calcium channel current (T type calcium channel [3]): completely suppressed the T type calcium channel current
L type calcium channel current (slow inactivating current) (L type calcium channel; N1E-115 cells, held at -90 mV, depolarization to +20 mV, FIG. 1A, 1D): does not appreciably suppress this L type channel current
neuronal excitability near threshold (neuroblastoma cell; 250 uM, current pulse to threshold and slightly above threshold, FIG. 5): suppress neuronal excitability at membrane potential near the threshold for regenerative depolarization
depolarization well above threshold (neuroblastoma cell; 250 uM, higher degree of stimulation, FIG. 5): does not block the depolarization at higher degree of stimulation

N=C(NCc1ccc(Cl)c(Cl)c1)NC(=O)c1nc(Cl)c(N)nc1N [3,4-dichlorobenzamil]
calcium currents (frog atrial cells): inhibited calcium currents in frog atrial cells

COc1ccc([C@@H]2Sc3ccccc3N(CCN(C)C)C(=O)[C@@H]2OC(C)=O)cc1 [diltiazem]
calcium channel type blocked [1]: block both the L and T type calcium channels
